According to PubChem BioAssay AID2060912 (Molecular Pharmacology Branch, DTP, NCI, 2025):

System: HUVEC/MSC spheroids viability
Assay: Human HUVEC/MSC cell line growth inhibition [KRAS2];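 on viability, T/C: percent of DMSO vehicle control luminescence so 100% = untreated viability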
Details: for IC50: curve of first compound; for viability, T/C: stronger effect = lower value
Procedure, shortened: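 HUVEC + hMSC stromal spheroids only, no malignant cells; 37 °C, 5% CO2. Drugs singly and in pairs, half-log series down from clinical Cmax (max 10 microM if Cmax undetermined).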

[1] = second compound 0.0316 µM, first compound 0.000316 µM
[2] = second compound 0.0316 µM, first compound 0.001 µM
[3] = second compound 0.0316 µM, first compound 0.00316 µM
[4] = second compound 0.0316 µM, first compound 0.01 µM
[5] = second compound 0.0316 µM, first compound 0.0316 µM
[6] = second compound 0.0316 µM, first compound 0.1 µM
[7] = second compound 0.1 µM, first compound 0.000316 µM
[8] = second compound 0.1 µM, first compound 0.001 µM
[9] = second compound 0.1 µM, first compound 0.00316 µM
[10] = second compound 0.1 µM, first compound 0.01 µM
[11] = second compound 0.1 µM, first compound 0.0316 µM
[12] = second compound 0.1 µM, first compound 0.1 µM
[13] = second compound 0.316 µM, first compound 0.000316 µM
[14] = second compound 0.316 µM, first compound 0.001 µM
[15] = second compound 0.316 µM, first compound 0.00316 µM
[16] = second compound 0.316 µM, first compound 0.01 µM
[17] = second compound 0.316 µM, first compound 0.0316 µM
[18] = second compound 0.316 µM, first compound 0.1 µM
[19] = second compound 1 µM, first compound 0.000316 µM
[20] = second compound 1 µM, first compound 0.001 µM
[21] = second compound 1 µM, first compound 0.00316 µM
[22] = second compound 1 µM, first compound 0.01 µM
[23] = second compound 1 µM, first compound 0.0316 µM
[24] = second compound 1 µM, first compound 0.1 µM
[25] = second compound 3.16 µM, first compound 0.000316 µM
[26] = second compound 3.16 µM, first compound 0.001 µM
[27] = second compound 3.16 µM, first compound 0.00316 µM
[28] = second compound 3.16 µM, first compound 0.01 µM
[29] = second compound 3.16 µM, first compound 0.0316 µM
[30] = second compound 3.16 µM, first compound 0.1 µM
[31] = second compound 10 µM, first compound 0.000316 µM
[32] = second compound 10 µM, first compound 0.001 µM
[33] = second compound 10 µM, first compound 0.00316 µM
[34] = second compound 10 µM, first compound 0.01 µM
[35] = second compound 10 µM, first compound 0.0316 µM
[36] = second compound 10 µM, first compound 0.1 µM

SMILES: CC(C)n1nc(-c2ccc3oc(N)nc3c2)c2c(N)ncnc21 + CNCc1ccccc1-c1csc(C(C)Nc2nc(C)nc3cc(OC)c(OC)cc23)c1
- IC50 (second compound 0.0316 µM): 3.15 nM
- IC50 (second compound 0.1 µM): 3.11 nM
- IC50 (second compound 0.316 µM): 7.12 nM
- IC50 (second compound 1 µM): 7.98 nM
- IC50 (second compound 3.16 µM): 7.84 nM
- IC50 (second compound 10 µM): < 0.316 nM
- viability, T/C [1]: 85.2%
- viability, T/C [2]: 69%
- viability, T/C [3]: 50.2%
- viability, T/C [4]: 44%
- viability, T/C [5]: 45.5%
- viability, T/C [6]: 44.4%
- viability, T/C [7]: 84.8%
- viability, T/C [8]: 64.6%
- viability, T/C [9]: 49.9%
- viability, T/C [10]: 45.6%
- viability, T/C [11]: 46.4%
- viability, T/C [12]: 45%
- viability, T/C [13]: 81.9%
- viability, T/C [14]: 66.5%
- viability, T/C [15]: 50.5%
- viability, T/C [16]: 51.9%
- viability, T/C [17]: 45.4%
- viability, T/C [18]: 37.6%
- viability, T/C [19]: 70.1%
- viability, T/C [20]: 52.5%
- viability, T/C [21]: 56.2%
- viability, T/C [22]: 50.6%
- viability, T/C [23]: 47%
- viability, T/C [24]: 37.5%
- viability, T/C [25]: 89.7%
- viability, T/C [26]: 79%
- viability, T/C [27]: 67.5%
- viability, T/C [28]: 40.7%
- viability, T/C [29]: 50.2%
- viability, T/C [30]: 36.5%
- viability, T/C [31]: 0.36%
- viability, T/C [32]: 0.39%
- viability, T/C [33]: 0.37%
- viability, T/C [34]: 0.37%
- viability, T/C [35]: 0.42%
- viability, T/C [36]: 0.4%

SMILES: CC1(C)CCC(CN2CCN(c3ccc(C(=O)NS(=O)(=O)c4ccc(NCC5CCOCC5)c([N+](=O)[O-])c4)c(Oc4cnc5[nH]ccc5c4)c3)CC2)=C(c2ccc(Cl)cc2)C1 + CNCc1ccccc1-c1csc(C(C)Nc2nc(C)nc3cc(OC)c(OC)cc23)c1
- IC50 (second compound 0.0316 µM): 4270 nM
- IC50 (second compound 0.1 µM): 4110 nM
- IC50 (second compound 0.316 µM): 4040 nM
- IC50 (second compound 1 µM): 4920 nM
- IC50 (second compound 3.16 µM): 5270 nM
- IC50 (second compound 10 µM): < 31.6 nM
- viability, T/C [5]: 101%
- viability, T/C [6]: 111%
- viability, T/C (second compound 0.0316 µM, first compound 0.316 µM): 101%
- viability, T/C (second compound 0.0316 µM, first compound 1 µM): 94.2%
- viability, T/C (second compound 0.0316 µM, first compound 3.16 µM): 67.1%
- viability, T/C (second compound 0.0316 µM, first compound 10 µM): 1.69%
- viability, T/C [11]: 87.2%
- viability, T/C [12]: 106%
- viability, T/C (second compound 0.1 µM, first compound 0.316 µM): 93.7%
- viability, T/C (second compound 0.1 µM, first compound 1 µM): 87%
- viability, T/C (second compound 0.1 µM, first compound 3.16 µM): 63.2%
- viability, T/C (second compound 0.1 µM, first compound 10 µM): 5.65%
- viability, T/C [17]: 79.8%
- viability, T/C [18]: 76.3%
- viability, T/C (second compound 0.316 µM, first compound 0.316 µM): 97.8%
- viability, T/C (second compound 0.316 µM, first compound 1 µM): 104%
- viability, T/C (second compound 0.316 µM, first compound 3.16 µM): 62.8%
- viability, T/C (second compound 0.316 µM, first compound 10 µM): 2.84%
- viability, T/C [23]: 75.4%
- viability, T/C [24]: 73.7%
- viability, T/C (second compound 1 µM, first compound 0.316 µM): 90.9%
- viability, T/C (second compound 1 µM, first compound 1 µM): 76.6%
- viability, T/C (second compound 1 µM, first compound 3.16 µM): 80.2%
- viability, T/C (second compound 1 µM, first compound 10 µM): 2.99%
- viability, T/C [29]: 78.3%
- viability, T/C [30]: 99.6%
- viability, T/C (second compound 3.16 µM, first compound 0.316 µM): 82%
- viability, T/C (second compound 3.16 µM, first compound 1 µM): 92.2%
- viability, T/C (second compound 3.16 µM, first compound 3.16 µM): 95.9%
- viability, T/C (second compound 3.16 µM, first compound 10 µM): 0.31%
- viability, T/C [35]: 0.33%
- viability, T/C [36]: 0.35%
- viability, T/C (second compound 10 µM, first compound 0.316 µM): 0.51%
- viability, T/C (second compound 10 µM, first compound 1 µM): 0.51%
- viability, T/C (second compound 10 µM, first compound 3.16 µM): 0.36%
- viability, T/C (second compound 10 µM, first compound 10 µM): 0.57%

SMILES: Cn1ncnc1[C@H]1c2n[nH]c(=O)c3cc(F)cc(c23)N[C@@H]1c1ccc(F)cc1 + CNCc1ccccc1-c1csc(C(C)Nc2nc(C)nc3cc(OC)c(OC)cc23)c1
- IC50 (second compound 0.0316 µM): > 100 nM
- IC50 (second compound 0.1 µM): > 100 nM
- IC50 (second compound 0.316 µM): > 100 nM
- IC50 (second compound 1 µM): > 100 nM
- IC50 (second compound 3.16 µM): > 100 nM
- IC50 (second compound 10 µM): < 0.316 nM
- viability, T/C [1]: 97.8%
- viability, T/C [2]: 85.9%
- viability, T/C [3]: 81.2%
- viability, T/C [4]: 73.2%
- viability, T/C [5]: 76.8%
- viability, T/C [6]: 78.4%
- viability, T/C [7]: 93.3%
- viability, T/C [8]: 90.2%
- viability, T/C [9]: 90.2%
- viability, T/C [10]: 70.6%
- viability, T/C [11]: 81.8%
- viability, T/C [12]: 79.7%
- viability, T/C [13]: 65.4%
- viability, T/C [14]: 90.5%
- viability, T/C [15]: 79.9%
- viability, T/C [16]: 76.5%
- viability, T/C [17]: 76.2%
- viability, T/C [18]: 69.2%
- viability, T/C [19]: 67.3%
- viability, T/C [20]: 76.9%
- viability, T/C [21]: 67%
- viability, T/C [22]: 75.3%
- viability, T/C [23]: 75.9%
- viability, T/C [24]: 72%
- viability, T/C [25]: 89%
- viability, T/C [26]: 86.8%
- viability, T/C [27]: 94.7%
- viability, T/C [28]: 80.7%
- viability, T/C [29]: 77.8%
- viability, T/C [30]: 75%
- viability, T/C [31]: 0.29%
- viability, T/C [32]: 0.28%
- viability, T/C [33]: 0.32%
- viability, T/C [34]: 0.29%
- viability, T/C [35]: 0.31%
- viability, T/C [36]: 0.28%
